In brackets after ≈: the same amount, converted by molar mass.

Experimental findings from patent US4438044A, “Di-L-cysteine L-malate and process for the production thereof” (priority 1980, dated 1984) are described below.

One data set is described as follows: Solubility in water. The data set is classed as physicochemical. Particulars: 10° C.
Data set [1] is classed as physicochemical. As to the method: The storage stability of the above crystalline product and L-cysteine hydrochloride anhydride is measured by keeping them at 40° C. The results are shown in the accompanying FIG. 3.

With `N[C@@H](CS)C(=O)O` [di-L-cysteine L-malate], the solubility (as a rule, the concentration that dissolves in the medium under given conditions) in the data set “Solubility in water” was 222 mg/mL (≈ 1830 mM). For the same compound, in data set [1], the “stability in the crystalline form” value is recorded as “extremely stable” and the storage stability entry is listed as “excellent stability”.
